Earlier results, collected in patent US20130178535A1, “Acetaminophen Composition” (B. Braun Melsungen AG, priority 2010, published 2013).

pH at which breakdown (hydrolysis) in aqueous solution is minimal: ~6
Structure (SMILES): CC(=O)Nc1ccc(O)cc1 [paracetamol, N-(4-hydroxyphenyl)ethanamide]
